{"source": "patent US8507219B2", "about": "“Method of treating inflammation with statins” (MUSC Foundation for Research Development, priority 1997, dated 2013)", "key": {"sterol synthesis": {"tested_on": "sterol synthesis", "conditions": "Sinensky et al., 1991; read-out: IC50 for inhibition of sterol synthesis; cited from earlier work"}, "[1]": {"tested_on": "intracellular GSH in rat primary astrocytes", "test": "Intracellular GSH / GSSG in rat primary astrocytes", "format": "cell-based", "conditions": "10 mM NAC 1 h; TNF-α or IL-1β 50 ng/ml; diamide 0.5 mM", "description": "Measurement of reduced glutathione (GSH) concentration in rat primary astrocytes Concentration of intracellular GSH was measured using a colorimetric assay kit for GSH from RandD, USA. Briefly, 2×10^6 cells were homogenized in 500 μl of ice-cold 5% metaphosphoric acid and centrifuged at 3000 g for 10 min. Supernatants were used to assay GSH using 4-chloro-1-methyl-7-trifluoromethyl-quinolinium methylsulfate and 30% NaOH at 400 nm.\nMeasurement of GSH (Reduced Glutathione) and GSSG Oxidized Glutathione Concentration of intracellular reduced GSH was measured using a calorimetric assay kit for GSH from R & D Systems. Briefly, 2×10^6 cells were homogenized in 500 μl of ice-cold 5% metaphosphoric acid and centrifuged at 3000×g for 10 min. Supernatants were used to assay GSH using 4-chloro-1-methyl-7-trifluoromethylquinolinium methylsulfate and 30% NaOH at 400 nm. Concentration of GSSG was determined according to the method of Griffith (1980) after derivatization with 2-vinylpyridine for 30 min at room temperature."}, "[2]": {"tested_on": "rat primary microglia, oligodendrocytes and C6 glial cells", "test": "TNF-α-induced ceramide production in rat primary microglia, oligodendrocytes and C6 glial cells", "format": "cell-based", "conditions": "10 mM NAC 1 h, TNF-α 50 ng/ml"}, "[3]": {"tested_on": "rat primary oligodendrocytes", "test": "Apoptosis (DNA fragmentation, laddering) in rat primary oligodendrocytes", "format": "cell-based", "conditions": "10 mM NAC 1 h; diamide 0.5 mM, TNF-α 50 ng/ml or C2-ceramide; 12 h", "description": "Detection of DNA fragmentation Cells (1×10^6) were pelleted in an eppendorf tube by centrifugation at 1,000 rpm for 5 min, washed with PBS (pH 7.4), resuspended gently in 50 μl of a lysis buffer [200 mM NaCl, 10 mM Tris-HCl (pH 8.0), 40 mM EDTA (pH 8.0), 0.5% SDS, 400 ng RNase A/μl] and incubated at 37° C. for 1 h. The lysate received 200 μl of the digestion buffer [200 mM NaCl, 10 mM Tris-HCl (pH 8.0), 0.5% SDS, 125 ng proteinase K/μl]. The contents were mixed by inversion several times and then incubated at 50° C. for 2 h. An equal volume of a mixture phenol (pH 8.0), chloroform and isoamyl alcohol (25:24:1, v/v) was added, gently mixed for 10 min, and stored at room temperature for 2 min. […] The gel was stained with ethidium bromide and DNA-intercalated ethidium fluorescence was photographed on Polaroid film 665 (P/N) using an orange filter. […]\nDetection of DNA Fragmentation Cells (1×10^6) were pelleted in an Eppendorf tube by centrifugation at 1000 rpm for 5 min, washed with phosphate-buffered saline, pH 7.4, resuspended gently in 50 μl of a lysis buffer (200 mM NaCl, 10 mM Tris-HCl, pH 8.0, 40 mM EDTA, pH 8.0, 0.5% SDS, 400 ng of RNase A/μl), and incubated at 37° C. for 1 h. […] The gel was stained with ethidium bromide, and DNA-intercalated ethidium fluorescence was photographed on Polaroid film 665 (P/N) using an orange filter. […]"}, "[4]": {"tested_on": "cholesterol synthesis in rat primary astrocytes"}}, "note": "“Also recorded” adds a separate entry of the source.", "data": [{"smiles": "CC[C@H](C)C(=O)O[C@H]1C[C@@H](C)C=C2C=C[C@H](C)[C@H](CC[C@@H]3C[C@@H](O)CC(=O)O3)[C@H]21", "note": "[Lovastatin]", "values": [{"measurement": "IC50", "setting": "sterol synthesis", "value": 10, "unit": "nM"}]}, {"smiles": "CC(=O)N[C@@H](CS)C(=O)O", "note": "[NAC, N-acetyl cysteine]", "values": [{"measurement": "intracellular level of GSH / GSSG", "setting": "[1]", "value": "intracellular level of GSH did not decrease when cells were stimulated with cytokines in presence of NAC; also recorded: lack of decrease of GSH"}, {"measurement": "TNF-α-induced production of ceramide", "setting": "[2]", "value": "potently blocked the TNF-α-induced production of ceramide in microglia, oligodendrocytes and C6 glial cells; also recorded: potently blocked the TNF-α-induced production of ceramide in microglia, oligodendrocytes, and C6 glial cells"}, {"measurement": "ceramide formation and DNA fragmentation / apoptosis", "setting": "[3]", "value": "inhibited the induction of ceramide formation and DNA fragmentation; also recorded: had no effect on C2-ceramide-mediated apoptosis in oligodendrocytes"}]}, {"smiles": "O=C([O-])Cc1ccccc1.[Na+]", "note": "[NaPA, sodium salt of phenylacetic acid]", "values": [{"measurement": "inhibition of the synthesis of cholesterol", "setting": "[4]", "value": "64±5.3", "unit": "%"}]}]}
